Experimental data from patent US10555987B2, “GHRH agonists for the treatment of ischemic disorders” (UNIVERSITY OF MIAMI, priority 2012, dated 2020).
Non-standard residues stand in square brackets, D forms with d. Residues, ends and D or L forms follow the SMILES beside them. ξ: configuration not given here. *: point of attachment. Phe(F5) = N[C@@H](Cc1c(F)c(F)c(F)c(F)c1F)C(=O)O; Desaminotyrosyl = O=C(CCc1ccc(O)cc1)*; NMeY = CN[C@@H](Cc1ccc(O)cc1)C(=O)O; Agmatine = N=C(N)NCCCCN*; NMeA = CN[C@@H](C)C(=O)O; Nle = CCCC[C@H](N)C(=O)O; Orn = NCCC[C@H](N)C(=O)O; Abu = CC[C@H](N)C(=O)O; Ava = NCCCCC(=O)O; GABA = NCCCC(=O)O; ξA = CC(N)C(=O)O

Key:
GH release = assay: In vivo endocrine activity, GH release after subcutaneous administration (Table 9); conditions: rat; for GH releasing potency relative to JI-38 (=1): subcutaneous (s.c.) injection
Description: Subcutaneous Administration. Adult male rats were used and anesthetized with pentobarbital (6 mg/100 g, b.w.), by i.p. injection. […] Blood samples were taken from the jugular vein 5, 15 and/or 30 minutes after the injection. The blood samples were centrifuged, plasma was removed and the GH level was measured byELISA. The results are summarized in terms of potency in Table 9.

GHRH receptor = target: T1, GHRH receptor (Homo sapiens, UniProt Q02643); assay: GHRH receptor binding, competition with 125I-labeled JV-1-42, human pituitary membrane homogenates (Table 7); parameters: Normal human pituitaries were purchased from the National Hormone and Peptide Program; tissue National Hormone and Peptide Program (A.F. Parlow, Harbor-UCLA Medical Center, Torrance, Calif.); host or cells: normal human pituitary, membrane fraction; conditions: for Relative affinity (Binding potency) vs JI-38: JI-38 = 1, Table 7
T1 sequence (Q02643 23-423): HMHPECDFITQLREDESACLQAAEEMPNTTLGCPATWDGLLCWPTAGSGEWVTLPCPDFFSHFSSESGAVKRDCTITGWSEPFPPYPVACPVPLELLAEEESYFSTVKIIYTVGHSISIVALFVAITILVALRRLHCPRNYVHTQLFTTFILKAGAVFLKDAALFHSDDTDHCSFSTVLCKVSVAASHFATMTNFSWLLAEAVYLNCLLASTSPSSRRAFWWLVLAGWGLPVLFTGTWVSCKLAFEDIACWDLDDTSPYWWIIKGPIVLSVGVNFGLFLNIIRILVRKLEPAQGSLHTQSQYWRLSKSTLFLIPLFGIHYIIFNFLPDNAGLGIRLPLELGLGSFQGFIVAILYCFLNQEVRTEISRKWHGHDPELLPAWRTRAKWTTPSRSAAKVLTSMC
Excerpt: Normal human pituitaries were purchased from the National Hormone and Peptide Program (A.F. Parlow, Los Angeles, County Harbor-UCLA Medical Center, Torrance, Calif.).

Row | Molecule | GH releasing potency relative to JI-38 (=1) (GH release; 5 min after) | GH releasing potency relative to JI-38 (=1) (GH release; 15 min after) | GH releasing potency relative to JI-38 (=1) (GH release; 30 min after) | IC50 (GHRH receptor; 125I-JV-1-42, human pituitary membranes, Table 7) [nM] | Relative affinity (Binding potency) vs JI-38 (GHRH receptor) | Stimulation of growth hormone levels after subcutaneous administration (in words) (GH release; s.c.)
1 | CCCC[C@H](NC(=O)[C@@H](NC(=O)[C@H](CC(=O)O)NC(=O)[C@H](CCC(N)=O)NC(=O)[C@H](CC(C)C)NC(=O)[C@H](CC(C)C)NC(=O)[C@H](CCCN)NC(=O)[C@H](CCCNC(=N)N)NC(=O)[C@H](C)NC(=O)[C@H](CO)NC(=O)[C@H](CC(C)C)NC(=O)[C@H](CCC(N)=O)NC(=O)[C@H](CC)NC(=O)[C@H](CC(C)C)NC(=O)[C@@H](NC(=O)[C@H](CCCN)NC(=O)[C@H](CCCNC(=N)N)NC(=O)[C@H](Cc1ccc(O)cc1)NC(=O)[C@H](CO)NC(=O)[C@H](C)N(C)C(=O)[C@@H](NC(=O)[C@H](Cc1ccccc1)NC(=O)[C@@H](NC(=O)[C@H](C)NC(=O)[C@H](CC(=O)O)NC(=O)[C@@H](C)NC(=O)CCc1ccc(O)cc1)[C@@H](C)CC)[C@@H](C)O)C(C)C)[C@@H](C)CC)C(=O)N[C@@H](CC(=O)O)C(=O)NCCCCNC(=N)N [Peptide P-20357, [Dat^1, D-Ala^2, N—Me-Ala^8, Orn^12, Abu^15, Orn^21, Nle^27, Asp^28, Agm^29]hGHRH (1-29)NH2] (Desaminotyrosyl-[dA]DAIFT[NMeA]SYR[Orn]VL[Abu]QLSAR[Orn]LLQDI[Nle]D-Agmatine) | 0.63 | 1.07 | 1.41 | 0.86 | 5.06 | 
2 | CCCC[C@H](NC(=O)[C@@H](NC(=O)[C@H](CC(=O)O)NC(=O)[C@H](CCC(N)=O)NC(=O)[C@H](CC(C)C)NC(=O)[C@H](CC(C)C)NC(=O)[C@H](CCCN)NC(=O)[C@H](CCCNC(=N)N)NC(=O)[C@H](C)NC(=O)[C@H](CO)NC(=O)[C@H](CC(C)C)NC(=O)[C@H](CCC(N)=O)NC(=O)[C@H](CC)NC(=O)[C@H](CC(C)C)NC(=O)[C@@H](NC(=O)[C@H](CCCN)NC(=O)[C@H](CCCNC(=N)N)NC(=O)[C@H](Cc1ccc(O)cc1)NC(=O)[C@H](CO)NC(=O)[C@H](CC(N)=O)NC(=O)[C@@H](NC(=O)[C@H](Cc1c(F)c(F)c(F)c(F)c1F)NC(=O)[C@@H](NC(=O)[C@H](C)NC(=O)[C@H](CC(=O)O)NC(=O)[C@@H](C)NC(=O)[C@H](Cc1ccc(O)cc1)NC)[C@@H](C)CC)[C@@H](C)O)C(C)C)[C@@H](C)CC)C(=O)N[C@@H](CC(=O)O)C(=O)NCCCCNC(=N)N [Peptide P-20359, [N—Me-Tyr^1, D-Ala^2, Fpa5^6, Orn^12, Abu^15, Orn^21, Nle^27, Asp^28, Agm^29]hGHRH (1-29)NH2] (H-[NMeY][dA]DAI[Phe(F5)]TNSYR[Orn]VL[Abu]QLSAR[Orn]LLQDI[Nle]D-Agmatine) |  |  |  |  | 1.43 | 
3 | CCCC[C@H](NC(=O)[C@@H](NC(=O)[C@H](CC(=O)O)NC(=O)[C@H](CCC(N)=O)NC(=O)[C@H](CC(C)C)NC(=O)[C@H](CC(C)C)NC(=O)[C@H](CCCN)NC(=O)[C@H](CCCNC(=N)N)NC(=O)[C@H](C)NC(=O)[C@H](CO)NC(=O)[C@H](CC(C)C)NC(=O)[C@H](CCC(N)=O)NC(=O)[C@H](CC)NC(=O)[C@H](CC(C)C)NC(=O)[C@@H](NC(=O)[C@H](CCCN)NC(=O)[C@H](CCCNC(=N)N)NC(=O)[C@H](Cc1ccc(O)cc1)NC(=O)[C@H](CO)NC(=O)[C@H](CCC(N)=O)NC(=O)[C@@H](NC(=O)[C@H](Cc1ccccc1)NC(=O)[C@@H](NC(=O)[C@H](C)NC(=O)[C@H](CC(=O)O)NC(=O)C(C)NC(=O)[C@H](Cc1ccc(O)cc1)NC)[C@@H](C)CC)[C@@H](C)O)C(C)C)[C@@H](C)CC)C(=O)N[C@@H](CC(=O)O)C(=O)N[C@@H](CCCNC(=N)N)C(=O)NCCCCC(N)=O (stereo partly drawn) [Peptide P-22325, [N—Me-Tyr^1, Gln^8, Orn^12, Abu^15, Orn^21, Nle^27, Asp^28, Apa^30]hGHRH (1-30)NH2] (H-[NMeY][ξA]DAIFTQSYR[Orn]VL[Abu]QLSAR[Orn]LLQDI[Nle]DR[Ava]-NH2) | 0.33 | 0.68 | 1.03 |  | 1.14 | 
4 | CCCC[C@H](NC(=O)[C@@H](NC(=O)[C@H](CC(=O)O)NC(=O)[C@H](CCC(N)=O)NC(=O)[C@H](CC(C)C)NC(=O)[C@H](CC(C)C)NC(=O)[C@H](CCCN)NC(=O)[C@H](CCCNC(=N)N)NC(=O)[C@H](C)NC(=O)[C@H](CO)NC(=O)[C@H](CC(C)C)NC(=O)[C@H](CCC(N)=O)NC(=O)[C@H](CC)NC(=O)[C@H](CC(C)C)NC(=O)[C@@H](NC(=O)[C@H](CCCN)NC(=O)[C@H](CCCNC(=N)N)NC(=O)[C@H](Cc1ccc(O)cc1)NC(=O)[C@H](CO)NC(=O)[C@H](CC(N)=O)NC(=O)[C@@H](NC(=O)[C@H](Cc1ccccc1)NC(=O)[C@@H](NC(=O)[C@H](C)NC(=O)[C@H](CC(=O)O)NC(=O)[C@@H](C)NC(=O)[C@H](Cc1ccc(O)cc1)NC)[C@@H](C)CC)[C@@H](C)O)C(C)C)[C@@H](C)CC)C(=O)N[C@@H](CO)C(=O)N[C@@H](CCCNC(=N)N)C(=O)NCCCC(N)=O [Peptide P-25501, [N—Me-Tyr^1, D-Ala^2, Orn^12, Abu^15, Orn^21, Nle^27, Gab^30]hGHRH(1-30)NH2] (H-[NMeY][dA]DAIFTNSYR[Orn]VL[Abu]QLSAR[Orn]LLQDI[Nle]SR[GABA]-NH2) | 1.40 | 1.36 | 1.63 |  | 4.07 | stimulated greater growth hormone levels than hGHRH or JI-38
5 | CCCC[C@H](NC(=O)[C@@H](NC(=O)[C@H](CC(=O)O)NC(=O)[C@H](CCC(N)=O)NC(=O)[C@H](CC(C)C)NC(=O)[C@H](CC(C)C)NC(=O)[C@H](CCCN)NC(=O)[C@H](CCCNC(=N)N)NC(=O)[C@H](C)NC(=O)[C@H](CO)NC(=O)[C@H](CC(C)C)NC(=O)[C@H](CCC(N)=O)NC(=O)[C@H](CC)NC(=O)[C@H](CC(C)C)NC(=O)[C@@H](NC(=O)[C@H](CCCN)NC(=O)[C@H](CCCNC(=N)N)NC(=O)[C@H](Cc1ccc(O)cc1)NC(=O)[C@H](CO)NC(=O)[C@H](CC(N)=O)NC(=O)[C@@H](NC(=O)[C@H](Cc1ccccc1)NC(=O)[C@@H](NC(=O)[C@H](C)NC(=O)[C@H](CC(=O)O)NC(=O)[C@H](CC)NC(=O)[C@H](Cc1ccc(O)cc1)NC)[C@@H](C)CC)[C@@H](C)O)C(C)C)[C@@H](C)CC)C(=O)N[C@@H](CO)C(=O)N[C@@H](CCCNC(=N)N)C(=O)NCCCC(N)=O [Peptide P-25503, [N—Me-Tyr^1, Abu^2, Orn^12, Abu^15, Orn^21, Nle^27, Gab^30]hGHRH(1-30)NH2] (H-[NMeY][Abu]DAIFTNSYR[Orn]VL[Abu]QLSAR[Orn]LLQDI[Nle]SR[GABA]-NH2) | 0.55 | 0.64 | 0.63 |  | 3.67 | 
6 | [N—Me-D-Tyr^1, D-Ala^2, Gln^8, Orn^12, Abu^15, Orn^21, Nle^27, Asp^28]hGHRH(1-29)NH—CH3 [Peptide P-27425] |  | 0.49 | 0.31 |  |  | 
7 | [N—Me-Tyr^1, D-Ala^2, Ala^8, Orn^12, Abu^15, Orn^21, Nle^27, Asp^28]hGHRH (1-29)NH—CH3 [Peptide P-27412] |  | 1.10 | 1.29 |  |  | 
8 | [N—Me-Tyr^1, D-Ala^2, Gln^8, Orn^12, Abu^15, Orn^21, Nle^27, Asp^28, Gln-Gab^30] hGHRH](1-30)NH2 [Peptide P-29701] | 0.92 | 1.30 | 1.55 |  |  | 
9 | [N—Me-Tyr^1, D-Ala^2, Thr^8, Orn^12, Abu^15, Orn^21, Nle^27, Asp^28, Agm^29] hGHRH (1-29)NH2 [Peptide P-20360] |  | 0.24 | 0.39 |  |  | 
10 | [N—Me-Tyr^1, Gln^8, Orn^12, Abu^15, Orn^21, Nle^27, Agm^29]hGHRH(1-29)NH2 [Peptide P-20373] |  | 0.23 | 0.88 |  |  | 
